Data reported in EP1372661B1, “GLYCOL DERIVATVES OF XANTHINES FOR TREATING IRRITABLE BOWEL SYNDROME” (SMITHKLINE BEECHAM CORPORATION, priority 2001, dated 2002).

System: Zymosan-sensitized rats
Test: Rodent model of zymosan-induced hyperalgesia: visceromotor response to colorectal distension
Assay type: in vivo, Adult male Sprague-Dawley rats
Settings: intracolonic zymosan (1 mL, 25 mg/mL), CRD 80 mm Hg, 20 seconds, four hours after zymosan, baseline = 100% of control
Source text: Protocol for Evaluation of (E)-4-(1,3-bis(cyclohexylmethyl)-1,2,3,6-tetrahydro-2,6-dioxo-9H-purin-8-yl)cinnamic acid nonaethylene glycol methyl ether ester in a Rodent Model of Zymosan-Induced Hyperalgesia
Adult male Sprague-Dawley rats (400-425 g) housed 1-2 per cage in the animal care facility at the University of Iowa (approved by the American Association for Accreditation of Laboratory Animal Care). All experimental procedures were approved by the Institutional Animal Care and Use Committee at the University of Iowa.
Rats were deeply anesthetized with pentobarbital sodium (45 mg/kg) administered intraperitoneally. […]
The descending colon and rectum were distended by pressure-controlled inflation of a 7-8-cm-long flexible latex balloon tied around a flexible tube. […] Intracolonic pressure was continuously monitored by the aid of a pressure control device. Response was quantified as the visceromotor response (VMR), a contraction of the abdominal and hindlimb musculature. EMG activity produced by contraction of the external oblique musculature was quantified using Spike2 software (Cambridge Electronic Designs). Each distension trial lasted 60 seconds, and EMG activity was quantitated in 1-second bins for 20 seconds before distension (baseline), during distention, and 20 seconds after distention. The increase in total number of recorded counts during distention is defined as the response. […]

COCCOCCOCCOCCOCCOCCOCCOCCOCCOC(=O)/C=C/c1ccc(-c2nc3c([nH]2)c(=O)n(CC2CCCCC2)c(=O)n3CC2CCCCC2)cc1 [(E)-4-(1,3-bis(cyclohexylmethyl)-1,2,3,6-tetrahydro-2,6-dioxo-9H-purin-8-yl)cinnamic acid nonaethylene glycol methyl ether ester]
response to colorectal distention (CRD) (as a percent of control) (12.5 mg/kg oral gavage at time 0 and 16 hours): effectively decreased the response to colorectal distention down to baseline levels | response to colorectal distention (CRD) (as a percent of control) (25 mg/kg oral gavage at time 0 and 16 hours): effectively decreased the response to colorectal distention down to baseline levels
